Tested on: growing MVs (neovessels)
Assay: Effect of DYRK3 inhibition on MV growth in 3D culture
Format: cell-based, human
Experimental: FIG. 5. Effect of DYRK3 inhibition on MV growth. Phase contrast images of MVs after 9 days of culture, with a single 3-hour exposure of DYRK3 inhibitor after initial neovessel sprouting (day 4). […] Scale=100 μm. Arrows point to neovessels.
For all assays, MVs isolated from human adipose tissue via a limited collagen digestion are embedded (100,000 MV/ml) in a 3 mg/ml collagen gel. This formulation is compatible with a variety of multi-well plates. Whenever possible, assessments are made daily over the course of 1 week, including image acquisition for HCA.
DYRK3 and angiogenesis: To further explore DYRK3 in this model, growing MVs are treated with the small molecule GSK626616, a known DYRK3 inhibitor. Cultures with growing neovessels (in RPMI with B27 and 50 ng/ml VEGF) were treated with 10 μM GSK626616 for 3 hours, and then returned to medium without inhibitor for an additional 6 days.

[1] = 10 μM for 3 hours, then medium without inhibitor for additional 6 days, RPMI with B27 and 50 ng/ml VEGF, qualitative, vs untreated controls

## O=C1NC(=Nc2c(Cl)cccc2Cl)S/C1=C\c1ccc2nccnc2c1 [GSK626616]
[1]
  impact on parent MV: did not impact parent MV
  neovessel growth: stopped neovessel growth
  neovessel regression: may have even caused neovessel regression
After 9 days of culture, single 3-hour exposure after initial neovessel sprouting (day 4)
  neovessels apparent in phase contrast images: Fewer neovessels are apparent
